Experiment [1] relates to isolated rat soleus muscles. Briefly: Recovery of nerve-stimulated contractile force in isolated rat soleus nerve-muscle preparations exposed to tubocurarine. It counts as cell-based. To be noted: 50 μM compound, 40 mins exposure, after 90 mins 115 nM tubocurarine. How it is done: FIG. 2. […] Force traces from a representative muscle stimulated to contract in 1) control condition before addition of neuromuscular blocking agent, 2) the force response to stimulation after 90 minutes incubation with Tubocurarine. […] The traces presented in panel A (1, 2, 3), correspond to the dotted lines in panel B, respectively.
Recovery of force is quantified as the percentage of the force prior to tubocurarine that is recovered by the compound.
The current disclosure relates to compounds that inhibit CIC-1 ion channels and increase muscle excitability and thereby improve muscle function in clinical conditions where muscle activation is failing. Such conditions result in loss of contractile function of skeletal muscle, weakness and excessive fatigue. In this series of experiments the compounds were tested for their ability to restore contractile function of isolated rat muscle when the neuromuscular transmission had been compromised akin to neuromuscular disorders.
Experimentally, soleus muscles from 4-5 week old rats were isolated with the motor nerve remaining attached. The nerve-muscle preparations were mounted in experimental setups that enabled electrical stimulation of the motor nerve. Stimulation of the motor nerve led to activation of the muscle fibres and ensuing force production that was recorded.
After mounting the nerve-muscle preparation in the experimental setup, the contractile function of the muscle was initially assessed under the control conditions (FIG. 2A). […] The experimental condition mimics the failing neuromuscular transmission in a range of neuromuscular disorders. After addition of tubocurarine the contractile force declined over the next 90 mins to 10-50% of the control force. 50 μM of the test compound was then added and the contractile force recovered despite the continued presence of tubocurarine. To quantify the ability of the compound to restore force the percentage of the initial force that was restored was determined after 40 mins of compound exposure (FIG. 2B) and the point increase is reported in Table 3.

For experiment [2], the system named is hindlimb muscle force. The experiment can be described thus: In situ isometric hindlimb force in anaesthetised rats with neuromuscular transmission partially inhibited by Cisatracurium. Format: in vivo. The conditions noted are these: 47.2 mg/kg i.v., 80 Hz stimulation, Cisatracurium infusion, female Lewis rats. The method, then: Isometric hindlimb force was measured in 12-week old female Lewis rats in the presence and absence of compound.
Rats were placed under anesthesia with isoflurane (2-4%), intubated and subsequently connected to a micro ventilator (Microvent 1, Hallowell EMC, US). Two stimulation electrodes were inserted through the skin to stimulate the sciatic nerve. A small incision was made proximal to the ankle, to expose the Achilles tendon, which was tied by cotton string, and connected to a force transducer (Fort250, World Precision Instruments) with adjustable position (Vernier control). The Achilles tendon was then cut distal to the attached cotton string. […]
Muscle contractile properties were assessed by applying an electrical current (under supramaximal voltage conditions) to the nerve and recording the force generated by the muscle. The muscle was stretched until maximal force was obtained, when assessed by 2 Hz stimulation. Isometric force was measured every 30 seconds at 12 Hz (Twitch), 10 pulses, and at every 5 minutes at 80 Hz (Tetanic) for 1 second (80 pulses). […] The effect of test article was assessed on its ability to increase force generated from the stimulation pattern applied. The effect was assessed in the ability to increase force per se (tetanic, 80 Hz, stimulation), and the ratio between individual twitch peaks (12 Hz stimulation). […]

The target in experiment [3] is T1, CIC-1 ion channel (Rattus norvegicus, UniProt P35524).
T1 construct: from tissue; host or cells: whole soleus muscle of 12-14 week old Wistar rats
T1 sequence (P35524 1-994): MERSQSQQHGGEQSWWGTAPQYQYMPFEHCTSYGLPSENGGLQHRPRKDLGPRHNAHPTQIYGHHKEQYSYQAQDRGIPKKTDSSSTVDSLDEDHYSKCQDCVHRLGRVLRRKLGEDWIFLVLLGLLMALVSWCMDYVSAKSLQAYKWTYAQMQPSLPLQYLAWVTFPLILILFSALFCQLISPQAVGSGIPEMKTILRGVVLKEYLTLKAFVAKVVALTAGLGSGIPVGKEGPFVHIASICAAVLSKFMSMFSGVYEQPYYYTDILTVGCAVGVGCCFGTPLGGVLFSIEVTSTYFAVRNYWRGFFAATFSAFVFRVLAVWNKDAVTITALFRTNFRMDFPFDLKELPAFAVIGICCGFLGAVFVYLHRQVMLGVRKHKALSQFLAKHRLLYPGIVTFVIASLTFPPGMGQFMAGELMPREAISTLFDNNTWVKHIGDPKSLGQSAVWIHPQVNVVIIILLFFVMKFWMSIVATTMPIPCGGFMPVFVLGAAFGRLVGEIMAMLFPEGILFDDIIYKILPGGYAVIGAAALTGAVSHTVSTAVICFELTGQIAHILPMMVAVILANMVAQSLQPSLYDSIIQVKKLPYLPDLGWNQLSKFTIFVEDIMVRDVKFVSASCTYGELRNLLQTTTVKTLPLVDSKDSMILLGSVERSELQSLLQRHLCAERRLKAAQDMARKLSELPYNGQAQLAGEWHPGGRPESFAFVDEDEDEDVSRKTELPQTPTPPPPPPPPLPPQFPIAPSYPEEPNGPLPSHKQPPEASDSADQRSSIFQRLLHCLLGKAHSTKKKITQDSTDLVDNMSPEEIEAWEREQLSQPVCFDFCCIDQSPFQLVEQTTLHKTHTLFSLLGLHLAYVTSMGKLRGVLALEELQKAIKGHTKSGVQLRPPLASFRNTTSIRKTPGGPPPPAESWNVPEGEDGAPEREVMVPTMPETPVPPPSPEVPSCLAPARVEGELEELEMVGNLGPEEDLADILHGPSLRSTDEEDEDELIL
The experiment can be described thus: Electrophysiological measurement (three micro-electrode Gm) of compound inhibition of CIC-1 in rat soleus muscle fibres. Format: cell-based. The conditions noted are these: whole rat soleus muscle, approx. 30° C., four increasing concentrations; mean ± spread, n = experiments; read-out: EC50 (inhibition of CIC-1 ion channel, reduction of Gm).

Marks after values point to notes of the source that are not given here.

In the case of `COC[C@@H](Oc1ccc(Br)cc1C1CCC1)C(=O)[O-].[Na+]` [(2R)-A-6, Sodium (R)-2-(4-bromo-2-cyclobutylphenoxy)-3-methoxypropanoate], the “Point increase (%) of initial force that was restored” value (from here on “Point increase (%)”) in experiment [1] is −4.1 ± 1.4%. Turning to `COC[C@H](Oc1ccc(Br)cc1C1CC1)C(=O)O` [Compound A-1, (2S)-2-(4-Bromo-2-cyclopropylphenoxy)-3-methoxypropanoic acid], the “increase in tetanic force” value in experiment [2] is 85%. For the same compound, in experiment [3], the concentration for a half-maximal effect (EC50) worked out at 3.7 ± 0.2 µM. Also, in experiment [1], the “Point increase (%)” value is on record as 36.3* %. `COC[C@@H](Oc1ccc(Br)cc1C1CC1)C(=O)O` (single isomer, unassigned) [(2R)-A-1]: the “Point increase (%)” value in experiment [1] is given as 0.2%. Regarding `COC[C@H](Oc1ccc(Br)cc1C1CCC1)C(=O)O` [Compound A-6, (2S)-2-(4-bromo-2-cyclobutylphenoxy)-3-methoxypropanoic acid], the EC50 in experiment [3] was found to be 3.2 ± 2.1 µM. Besides, the “Point increase (%)” value in experiment [1] is 35.6 ± 8.3%. `COC[C@H](Oc1cc(F)c(Br)cc1C1CC1)C(=O)O` [Compound A-2, (2S)-2-(4-bromo-2-cyclopropyl-5-fluorophenoxy)-3-methoxypropanoic acid]: in experiment [1], the “Point increase (%)” value is recorded as 22.3 ± 3.8%.

The EC50 is the midpoint of the concentration-response curve.

(Values after patent US12168643B2, “Compounds for the treatment of neuromuscular disorders” (NMD PHARMA A/S, priority 2019, dated 2024).)
